Here are results for 38 compounds from ChEMBL document CHEMBL5120838, “Synthesis and biological evaluation of geniposide derivatives as inhibitors of hyperuricemia, inflammatory and fibrosis” (Eur J Med Chem, 2022).

Calls of active or inactive are those of the source. The calls are words filed in the database; no cut-off is given here.

The target of experiment [1] is Xanthine dehydrogenase/oxidase (Bos taurus, UniProt P80457). Briefly: Inhibition of bovine XOD assessed as inhibition of uric acid formation using xanthine as substrate preincubated with enzyme for 5 mins followed by substrate addition and measured for 30 mins by microplate reader analysis.
Xanthine dehydrogenase/oxidase, sequence (P80457 whole entry): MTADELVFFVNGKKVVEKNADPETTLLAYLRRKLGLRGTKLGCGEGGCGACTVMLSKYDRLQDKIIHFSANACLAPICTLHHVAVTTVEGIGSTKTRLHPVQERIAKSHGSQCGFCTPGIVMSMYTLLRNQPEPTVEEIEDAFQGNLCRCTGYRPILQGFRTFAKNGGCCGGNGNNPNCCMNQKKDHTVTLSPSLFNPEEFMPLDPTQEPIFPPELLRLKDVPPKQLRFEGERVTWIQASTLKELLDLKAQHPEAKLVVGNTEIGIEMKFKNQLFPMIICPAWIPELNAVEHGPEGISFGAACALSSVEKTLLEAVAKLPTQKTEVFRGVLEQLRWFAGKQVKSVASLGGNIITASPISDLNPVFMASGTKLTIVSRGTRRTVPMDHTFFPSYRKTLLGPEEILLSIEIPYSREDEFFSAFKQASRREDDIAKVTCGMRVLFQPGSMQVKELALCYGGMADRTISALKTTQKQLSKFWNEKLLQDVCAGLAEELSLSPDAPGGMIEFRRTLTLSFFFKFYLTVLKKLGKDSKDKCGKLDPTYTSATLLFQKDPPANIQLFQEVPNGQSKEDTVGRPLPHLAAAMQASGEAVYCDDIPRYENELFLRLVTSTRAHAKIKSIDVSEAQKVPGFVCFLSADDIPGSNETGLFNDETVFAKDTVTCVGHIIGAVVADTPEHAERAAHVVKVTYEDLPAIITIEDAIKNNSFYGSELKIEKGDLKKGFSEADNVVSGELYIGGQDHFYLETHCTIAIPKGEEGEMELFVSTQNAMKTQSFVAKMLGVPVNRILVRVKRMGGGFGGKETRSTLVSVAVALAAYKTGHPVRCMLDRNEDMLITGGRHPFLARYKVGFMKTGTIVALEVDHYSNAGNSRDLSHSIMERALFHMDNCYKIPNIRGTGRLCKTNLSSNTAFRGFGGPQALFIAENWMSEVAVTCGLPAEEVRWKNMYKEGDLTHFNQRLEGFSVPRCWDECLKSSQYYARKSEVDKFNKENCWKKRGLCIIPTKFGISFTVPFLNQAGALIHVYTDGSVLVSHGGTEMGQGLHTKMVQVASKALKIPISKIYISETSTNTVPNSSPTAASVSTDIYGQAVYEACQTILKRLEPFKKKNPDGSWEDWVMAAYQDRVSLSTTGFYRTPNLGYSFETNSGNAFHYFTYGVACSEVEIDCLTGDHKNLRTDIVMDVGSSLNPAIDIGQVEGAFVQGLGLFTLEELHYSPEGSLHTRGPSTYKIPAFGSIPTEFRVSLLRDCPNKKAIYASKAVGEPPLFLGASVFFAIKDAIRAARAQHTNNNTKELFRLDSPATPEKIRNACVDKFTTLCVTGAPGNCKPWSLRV
The subject of experiment [2] is Mus musculus. Briefly: Anti-hyperuricemic activity against adenine and potassium oxonate-induced hyperuricemia Kunming mouse model assessed as reduction in serum uric acid level at 20 mg/kg, po administered via gavage once daily for 2 weeks (reference value: 318.16 +/- 3.31 uM). Type of experiment: functional.
For experiment [3], the system named is Mus musculus. The experiment is described as follows: Anti-hyperuricemic activity against adenine and potassium oxonate-induced hyperuricemia Kunming mouse model assessed as reduction in serum creatinine level at 20 mg/kg, po administered via gavage once daily for 2 weeks (reference value: 87.62 +/- 0.67 uM). Type of experiment: functional.
The test system of experiment [4] is Mus musculus. The experiment is described as follows: Anti-hyperuricemic activity against adenine and potassium oxonate-induced hyperuricemia Kunming mouse model assessed as blood urea nitrogen level at 20 mg/kg, po administered via gavage once daily for 2 weeks (reference value: 9.88 +/- 1.21 mM). Type of experiment: functional.
Experiment [5] has as its system Mus musculus. The experiment is described as follows: Nephroprotective activity against adenine and potassium oxonate-induced hyperuricemia Kunming mouse model assessed as reduction in renal tubule dilation at 20 mg/kg, po administered via gavage and measured after 21 days by hematoxylin-eosin and Masson trichrome staining based optical microscopic analysis. Type of experiment: functional, organism-based. As to conditions: time 21.0 day.

In experiment [6] the test system is Mus musculus. The experiment is described as follows: Nephroprotective activity against adenine and potassium oxonate-induced hyperuricemia Kunming mouse model assessed as reduction in cytoplasmic vacuolation of renal tubular epithelial cells at 20 mg/kg, po administered via gavage and measured after 21 days by hematoxylin-eosin and Masson trichrome staining based optical microscopic analysis. Type of experiment: functional, organism-based. As to conditions: time 21.0 day.

The test system of experiment [7] is Mus musculus. The experiment is described as follows: Nephroprotective activity against adenine and potassium oxonate-induced hyperuricemia Kunming mouse model assessed as appearance of clear tubular structures at 20 mg/kg, po administered via gavage and measured after 21 days by hematoxylin-eosin and Masson trichrome staining based optical microscopic analysis. As to conditions: time 21.0 day. Type of experiment: functional, organism-based.

For experiment [8], the system named is Mus musculus. The experiment is described as follows: Nephroprotective activity against adenine and potassium oxonate-induced hyperuricemia Kunming mouse model assessed as reduction in connective tissue hyperplasia at 20 mg/kg, po administered via gavage and measured after 21 days by hematoxylin-eosin and Masson trichrome staining based optical microscopic analysis. Type of experiment: functional, organism-based. As to conditions: time 21.0 day.

Experiment [9] deals with Mus musculus. The experiment is described as follows: Nephroprotective activity against adenine and potassium oxonate-induced hyperuricemia Kunming mouse model assessed as reduction in neutrophils infiltrations at 20 mg/kg, po administered via gavage and measured after 21 days by hematoxylin-eosin and Masson trichrome staining based optical microscopic analysis. Type of experiment: functional, organism-based. As to conditions: time 21.0 day.

Experiment [10] has as its system Mus musculus. The experiment is described as follows: Nephroprotective activity against adenine and potassium oxonate-induced hyperuricemia Kunming mouse model assessed as reduction in tubular-interstitial lesion development at 20 mg/kg, po administered via gavage and measured after 21 days by hematoxylin-eosin and Masson trichrome staining based optical microscopic analysis. Type of experiment: functional, organism-based. As to conditions: time 21.0 day.

On to `CCNC(=O)OCC1=CC[C@@H]2C(C(=O)OC)=COC(OC(=O)NCC)[C@H]12` (stereo partly specified), for which the half-inhibitory concentration (IC50) in experiment [1] stood at 61.2 µM.
Same read-out and setting: in the case of `COC(=O)C1=COC(O)[C@@H]2C(CO)=CC[C@H]12` (stereo partly specified) it was 93.4 µM; in that of `CC(=O)OCC1=CC[C@@H]2C(C(=O)SC3=NCCS3)=CO[C@@H](O[C@@H]3O[C@H](COC(C)=O)[C@@H](OC(C)=O)[C@H](OC(C)=O)[C@H]3OC(C)=O)[C@H]12`, 12.6 µM; in that of `COC(=O)C1=COC(OC(=O)Nc2ccccc2Br)[C@@H]2C(COC(=O)Nc3ccccc3Br)=CC[C@H]12` (stereo partly specified), 23.9 µM.
Consider `CC(=O)OCC1=CC[C@@H]2C(C(=O)Nc3ccc(C#N)cc3)=CO[C@@H](O[C@@H]3O[C@H](COC(C)=O)[C@@H](OC(C)=O)[C@H](OC(C)=O)[C@H]3OC(C)=O)[C@H]12`, for which the 50% inhibitory concentration (IC50) in experiment [1] came to 1.86 µM. The Activity in experiment [2] was 244.57 µM; in experiment [3], 89.09 µM; in [4] it was 7.29 mM. Moreover, the outcome in experiment [5], in experiment [6], in experiment [7], in [8], in [9] and in experiment [10] was Active.
For the compound `CC(=O)OCC1=CC[C@@H]2C(C(=O)Oc3cncc4ccccc34)=CO[C@@H](O[C@@H]3O[C@H](COC(C)=O)[C@@H](OC(C)=O)[C@H](OC(C)=O)[C@H]3OC(C)=O)[C@H]12`, in experiment [1], the IC50 worked out at 30.7 µM.
Take `CC(=O)OCC1=CC[C@@H]2C(C(=O)Oc3ccncc3)=CO[C@@H](O[C@@H]3O[C@H](COC(C)=O)[C@@H](OC(C)=O)[C@H](OC(C)=O)[C@H]3OC(C)=O)[C@H]12`: the IC50 in experiment [1] is 9.15 µM.
On the same count and under the same terms, in the case of `CC(=O)OCC1=CC[C@@H]2C(C(=O)Nc3cncc4ccccc34)=CO[C@@H](O[C@@H]3O[C@H](COC(C)=O)[C@@H](OC(C)=O)[C@H](OC(C)=O)[C@H]3OC(C)=O)[C@H]12` it was 18.5 µM.
Same read-out and setting: with `CC(C)(C)C(=O)OCC1=CC[C@@H]2C(C(=O)O)=CO[C@@H](O[C@@H]3O[C@H](COC(=O)C(C)(C)C)[C@@H](OC(=O)C(C)(C)C)[C@H](OC(=O)C(C)(C)C)[C@H]3OC(=O)C(C)(C)C)[C@H]12` the figure was 91.2 µM.
With `CCC(=O)OCC1=CC[C@@H]2C(C(=O)O)=CO[C@@H](O[C@@H]3O[C@H](COC(=O)CC)[C@@H](OC(=O)CC)[C@H](OC(=O)CC)[C@H]3OC(=O)CC)[C@H]12`, the IC50 in [1] turned out to be 48.8 µM.
Take `CC(=O)OCC1=CC[C@@H]2C(C(=O)Nc3ccc(Br)c4ccccc34)=CO[C@@H](O[C@@H]3O[C@H](COC(C)=O)[C@@H](OC(C)=O)[C@H](OC(C)=O)[C@H]3OC(C)=O)[C@H]12`: the IC50 in experiment [1] stood at 4.14 µM. Besides, the Activity in [2] came out at 242.83 µM; in [3], 57.83 µM; in [4] it was 6.02 mM. Further, the result in experiment [5], in experiment [6], in [7], in [8], in experiment [9] and in experiment [10] was Active.
For the compound `COC(=O)C1=COC(OC(=O)NCCCCl)[C@@H]2C(COC(=O)NCCCCl)=CC[C@H]12` (stereo partly specified), in experiment [1], the IC50 came out at 48.8 µM.
Consider `CC(C)CC(=O)OCC1=CC[C@@H]2C(C(=O)O)=CO[C@@H](O[C@@H]3O[C@H](COC(=O)CC(C)C)[C@@H](OC(=O)CC(C)C)[C@H](OC(=O)CC(C)C)[C@H]3OC(=O)CC(C)C)[C@H]12`, for which the IC50 in experiment [1] is 69.7 µM.
Still for that read-out and setting: in the case of `COC(=O)C1=COC(OC(=O)NC(C)(C)C)[C@@H]2C(COC(=O)NC(C)(C)C)=CC[C@H]12` (stereo partly specified) it was 104 µM.
Still for that read-out and setting: in the case of `CC(=O)OCC1=CC[C@@H]2C(C(=O)Nc3nn[nH]n3)=CO[C@@H](O[C@@H]3O[C@H](COC(C)=O)[C@@H](OC(C)=O)[C@H](OC(C)=O)[C@H]3OC(C)=O)[C@H]12` it was 63.9 µM; in that of `COC(=O)C1=COC(OC(=O)NC(C)C)[C@@H]2C(COC(=O)NC(C)C)=CC[C@H]12` (stereo partly specified), 80.2 µM; in that of `CC(=O)OCC1=CC[C@@H]2C(C(=O)Nc3cccc4[nH]ccc34)=CO[C@@H](O[C@@H]3O[C@H](COC(C)=O)[C@@H](OC(C)=O)[C@H](OC(C)=O)[C@H]3OC(C)=O)[C@H]12`, 17.5 µM.
Regarding `CC(=O)OCC1=CC[C@@H]2C(C(=O)Nc3ccc(C(=O)NCC(=O)O)cc3)=CO[C@@H](O[C@@H]3O[C@H](COC(C)=O)[C@@H](OC(C)=O)[C@H](OC(C)=O)[C@H]3OC(C)=O)[C@H]12`, the IC50 in [1] came to 73.6 µM.
The same measure, in the same setting: with `CC(=O)OCC1=CC[C@@H]2C(C(=O)On3cccn3)=CO[C@@H](O[C@@H]3O[C@H](COC(C)=O)[C@@H](OC(C)=O)[C@H](OC(C)=O)[C@H]3OC(C)=O)[C@H]12` the figure was 8.74 µM; with `CC(=O)OCC1=CC[C@@H]2C(C(=O)NCc3ccncc3)=CO[C@@H](O[C@@H]3O[C@H](COC(C)=O)[C@@H](OC(C)=O)[C@H](OC(C)=O)[C@H]3OC(C)=O)[C@H]12`, 36.6 µM; with `CC(=O)OCC1=CC[C@@H]2C(C(=O)Nc3ccc(C(=O)O)cc3)=CO[C@@H](O[C@@H]3O[C@H](COC(C)=O)[C@@H](OC(C)=O)[C@H](OC(C)=O)[C@H]3OC(C)=O)[C@H]12`, 32.4 µM.
On the same count and under the same terms, in the case of `CC(=O)OCC1=CC[C@@H]2C(C(=O)Oc3cccc(C#N)c3)=CO[C@@H](O[C@@H]3O[C@H](COC(C)=O)[C@@H](OC(C)=O)[C@H](OC(C)=O)[C@H]3OC(C)=O)[C@H]12` it was 5.15 µM.
As for `CCCC(=O)OCC1=CC[C@@H]2C(C(=O)O)=CO[C@@H](O[C@@H]3O[C@H](COC(=O)CCC)[C@@H](OC(=O)CCC)[C@H](OC(=O)CCC)[C@H]3OC(=O)CCC)[C@H]12`, the IC50 in [1] stood at 55.7 µM.
Take `COC(=O)C1=COC(OC(=O)Nc2ccc(OC)cc2)[C@@H]2C(COC(=O)Nc3ccc(OC)cc3)=CC[C@H]12` (stereo partly specified): in experiment [1], the IC50 was determined as 12.8 µM.
Same read-out and setting: with `CC(=O)OCC1=CC[C@@H]2C(C(=O)Nc3cccc(F)c3)=CO[C@@H](O[C@@H]3O[C@H](COC(C)=O)[C@@H](OC(C)=O)[C@H](OC(C)=O)[C@H]3OC(C)=O)[C@H]12` the figure was 28.8 µM; with `CC(=O)OCC1=CC[C@@H]2C(C(=O)Sc3ncc[nH]3)=CO[C@@H](O[C@@H]3O[C@H](COC(C)=O)[C@@H](OC(C)=O)[C@H](OC(C)=O)[C@H]3OC(C)=O)[C@H]12`, 87.5 µM.
The same measure, in the same setting: in the case of `CC(=O)OCC1=CC[C@@H]2C(C(=O)Nn3ncc4ccccc43)=CO[C@@H](O[C@@H]3O[C@H](COC(C)=O)[C@@H](OC(C)=O)[C@H](OC(C)=O)[C@H]3OC(C)=O)[C@H]12` it was 22.8 µM; in that of `CC(=O)OCC1=CC[C@@H]2C(C(=O)Sc3cccs3)=CO[C@@H](O[C@@H]3O[C@H](COC(C)=O)[C@@H](OC(C)=O)[C@H](OC(C)=O)[C@H]3OC(C)=O)[C@H]12`, 22.8 µM.
Regarding `CC(=O)OCC1=CC[C@@H]2C(C(=O)Sc3ccncc3)=CO[C@@H](O[C@@H]3O[C@H](COC(C)=O)[C@@H](OC(C)=O)[C@H](OC(C)=O)[C@H]3OC(C)=O)[C@H]12`, the concentration for half-maximal inhibition (IC50) in experiment [1] was found to be 20.5 µM.
Still for that read-out and setting: with `COC(=O)C1=COC(OC(=O)Nc2ccc(C)cc2)[C@@H]2C(COC(=O)Nc3ccc(C)cc3)=CC[C@H]12` (stereo partly specified) the figure was 73.6 µM.
On to `O=C(O)C1=CO[C@@H](O[C@@H]2O[C@H](CO)[C@@H](O)[C@H](O)[C@H]2O)[C@@H]2C(CO)=CC[C@H]12` [GENIPOSIDIC ACID], for which, in experiment [1], the half-maximal inhibitory concentration (IC50) was found to be 62.2 µM.
The same measure, in the same setting: in the case of `CC(=O)OCC1=CC[C@@H]2C(C(=O)O)=CO[C@@H](O[C@@H]3O[C@H](COC(C)=O)[C@@H](OC(C)=O)[C@H](OC(C)=O)[C@H]3OC(C)=O)[C@H]12` it was 35.3 µM; in that of `COC(=O)C1=COC(OC(=O)NC2CCCCC2)[C@@H]2C(COC(=O)NC3CCCCC3)=CC[C@H]12` (stereo partly specified), 281 µM.
With `COC(=O)C1=COC(OC(=O)Nc2cccc(C)c2)[C@@H]2C(COC(=O)Nc3cccc(C)c3)=CC[C@H]12` (stereo partly specified), in experiment [1], the IC50 is 140 µM.
With `CC(=O)OCC1=CC[C@@H]2C(C(=O)SCc3ccccc3)=CO[C@@H](O[C@@H]3O[C@H](COC(C)=O)[C@@H](OC(C)=O)[C@H](OC(C)=O)[C@H]3OC(C)=O)[C@H]12`, the half-inhibitory concentration (IC50) in [1] stood at 181 µM.
Still for that read-out and setting: in the case of `CC(=O)OCC1=CC[C@@H]2C(C(=O)Nc3ccccc3-c3ccccc3)=CO[C@@H](O[C@@H]3O[C@H](COC(C)=O)[C@@H](OC(C)=O)[C@H](OC(C)=O)[C@H]3OC(C)=O)[C@H]12` it was 75.5 µM; in that of `CC(=O)OCC1=CC[C@@H]2C(C(=O)NCCC#N)=CO[C@@H](O[C@@H]3O[C@H](COC(C)=O)[C@@H](OC(C)=O)[C@H](OC(C)=O)[C@H]3OC(C)=O)[C@H]12`, 15.8 µM.
On to `COC(=O)C1=CO[C@@H](O[C@@H]2O[C@H](CO)[C@@H](O)[C@H](O)[C@H]2O)[C@H]2[C@@H]1CC1OC12CO` (stereo partly specified), for which, in experiment [1], the IC50 is 165 µM.
